Reference: patent US11974990B2, “TXNIP-TRX complex inhibitors and methods of using the same” (City of Hope, priority 2018, dated 2024)
“Also recorded” adds a separate entry of the source.

How the values were obtained:
Format in all cases: cell-based
[1] = Preliminary cell toxicity study in THP1 cells; settings: human
[2] = system: TXNIP mRNA; test: TXNIP mRNA expression (RT-PCR) in murine RAW macrophages; settings: RAW cells, 25 mM glucose, 72 h (FIG. 10A)
Protocol: FIGS. 10A-10B. FIG. 10A. […] RAW cells were cultured in 25 mM glucose with C1 (uM) for 72 h. Total RNA was prepared. RT-PCR was performed. Data shown are the mean+SEM from triplicates. Statistical analysis was performed for each column vs. high glucose (HG) DMSO using one-way ANOVA: *<0.0001. FIG. 10B. […] RAW cells were cultured in 25 mM glucose with C1 (uM) for 72 hours. Total RNA was prepared. RT-PCR was performed. Data shown are the mean+SEM from triplicates. Statistical analysis was performed for each column vs. HG DMSO using one-way ANOVA: *<0.0001.
(§1) RNA extraction and quantitative RT-PCR. RNA was extracted using the Direct-zol™ RNA MiniPrep Plus (Zymo Research). Reverse transcription of RNA samples into cDNA was performed using the GeneAmp RNA PCR Kit (Applied Biosystems), dNTP (from Roche Applied Science), Rnase inhibitor, MULV Reverse Transcriptase and Random hexamers reagent (all from Invitrogen). Diluted cDNA was quantified using real-time PCR performed with Power SYBR Green qPCR MasterMix (Applied Biosystem) and 7500 real-time PCR system (Applied Biosystems). The HPRT1 gene was used as an internal control.

[3] = biological target: T1, TXNIP-TRX complex (Homo sapiens, UniProt Q9H3M7); test: Co-IP of TXNIP with TRX in THP1 monocytes treated with compounds under high glucose
T1 construct: Co-immunoprecipitation (Co-IP) of TXNIP with TRX in THP 1 monocytes cells treated with compounds under high glucose condition; endogenous in cells; host or cells: THP1 human monocytes cultured in 25 mM glucose
T1 sequence (Q9H3M7 1-391): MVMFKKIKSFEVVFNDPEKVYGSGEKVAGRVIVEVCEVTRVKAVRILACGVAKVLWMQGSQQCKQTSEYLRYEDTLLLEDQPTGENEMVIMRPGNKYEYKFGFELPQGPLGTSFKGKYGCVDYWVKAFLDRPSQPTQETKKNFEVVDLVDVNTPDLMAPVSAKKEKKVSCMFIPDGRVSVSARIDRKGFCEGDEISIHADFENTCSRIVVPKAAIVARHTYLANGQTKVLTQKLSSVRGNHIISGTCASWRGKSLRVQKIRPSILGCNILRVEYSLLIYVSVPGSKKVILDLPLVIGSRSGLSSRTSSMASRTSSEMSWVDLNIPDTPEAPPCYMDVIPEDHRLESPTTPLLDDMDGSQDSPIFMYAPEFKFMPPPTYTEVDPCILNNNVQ
Protocol: FIGS. 4A-4B. Co-IP with anti-TRX in THP 1 cells treated with compounds under high glucose condition. THP1 cells were treated by 10 uM compounds over night, then glucose was added up to 25 mM. The cells were cultured for 72-96 h. Cell extracts were prepared using cell extract buffer (Thermo Fisher Scientific) and Co-IP were performed with mouse anti-TRX (abcam).
Assay 1: Co-immunoprecipitation (Co-IP) of TXNIP with TRX in THP 1 monocytes cells treated with compounds under high glucose condition. In this assay, we looked for compounds that can interfere with the interaction between TXNIP and TRX in THP-1 monocytes treated with HG. So here compounds are added to cells in culture. […] So we picked the candidates only if the results are repeatable.
Co-IP with compounds treated THP1 under high glucose condition. THP1 cells were treated with compounds (2.5 uM) overnight and glucose was add to 25 mM and culture for 3-5 days, then coIP were carried using co-IP protocol.
1. Transfer the cultured cells from the culture dish to a 15-mL conical tube. 2. Centrifuge at 500×g for 2 min at 4° C. and remove the supernatant. 3. Wash with ice-cold PBS and centrifuge at 500×g for 2 min at 4° C. Remove the supernatant. 4. Repeat Step 3 twice.
5. Resuspend the cell pellet in ice-cold cell lysis buffer (1 mL per 1×10^7 cells) and incubate on ice for 10 min. 6. Sonicate cells in ice bath three times for 5 second pulses each. 7. Centrifuge at 13,000×g at 4° C. for 10 min, and transfer the supernatant to a fresh tube. Store the tube on ice for further use, or for long storage at −80° C.
8. Resuspend the magnetic beads by pipetting up and down for several times. 9. Transfer 20 μL of bead slurry to a fresh tube. Place the tube in a magnetic separation rack […]. Carefully remove the supernatant once the solution is clear. 10. […]
Note: Pre-clearing the lysate is recommended to reduce the non-specific binding. However, if the protein is detected by western blotting, pre-clearing may not be necessary unless a contaminating protein is interfering with visualization of the protein of interest. […]

[4] = system: TNF-α mRNA; test: TNF-α mRNA expression (RT-PCR) in murine MIN6 pancreatic beta cells; settings: 25 mM glucose, 72 h (FIG. 11 right)
Protocol: FIG. 11. […] MIN6 cells were cultured in 25 mM glucose with C1 at uM concentrations for 72 h. Total RNA was prepared. RT-PCR was performed. Data shown are the mean+SEM from triplicates. Statistical analysis was performed for each column vs. HG DMSO using one-way ANOVA: *<0.0001.
as §1

CC(C)C(C(=O)O)N1C(=O)c2ccncc2C1=O (centres unmarked) [Compound C1, 2-(1,3-dioxo-1,3-dihydro-2H-pyrrolo[3,4-c]pyridin-2-yl)-3-methylbutanoic acid]
IC50 [1]: 450 µM
TXNIP mRNA expression [2]: inhibits TXNIP mRNA expression; also recorded: inhibited TXNIP and TNF-α mRNA expression
TXNIP association/interaction with TRX (co-IP, blot with TXNIP antibody) ([3]; THP1, 25 mM glucose, 5 uM C1, 16-72 h time course, nuclear cell extracts): Inhibition of TXNIP-TRX interaction; also recorded: significantly reduced at 48 h
HG-induced TXNIP-TRX co-IP band intensity ([3]; THP1 cells, compounds added to cells in culture overnight, glucose to 25 mM, 72-96 h, anti-TRX IP): inhibit high glucose-induced TXNIP-TRX co-immunoprecipitation; also recorded: reproducibly shows a reduction in the HG-induced band
TNF-α mRNA levels [4]: did not decrease TNF-α levels
